Values after ≈ are worked out from the molar mass of the structure shown. Like-named read-outs stand apart in the source and are kept apart here. Non-standard residues stand in square brackets, D forms with d. Residues, ends and D or L forms follow the SMILES beside them. No end group written: not given here. Where only a bound is given, the exact number is not on record here.

The values below come from paper PMC5338256, “D-form KLKLLLLLKLK-NH2 peptide exerts higher antimicrobial properties than its L-form counterpart via an association with bacterial cell wall components” (Scientific Reports, 2017).

The test system of data set [1] is S. aureus. The data set is described as follows: Inhibition of antimicrobial activity by bacterial cell wall components. The data set is classed as cell-based, Staphylococcus aureus. As to conditions: Kn2–7 6.25 μg/ml, Mastoparan M 8 μg/ml, 10 min. On the procedure:
(§1) Bacteria and C. albicans were suspended in growth medium. Peptides suspended in dimethyl sulfoxide were serially diluted in 10 mM phosphate buffer (pH 6.0) containing 130 mM sodium chloride, 0.2% bovine serum albumin as described previously. In order to examine the effects of bovine serum albumin on the assay, 10 mM phosphate buffer (pH 6.0) containing 130 mM sodium chloride, was used for the dilution of peptides. Peptide solution (500 μl) was added to 500 μl of bacteria suspensions and then the mixture was incubated at 37 °C for 10 min. In order to examine the effects of culture medium components on the assay, bacteria suspension was prepared with 10 mM phosphate buffer (pH 6.0) containing 130 mM sodium chloride. Alternatively, 500 μl of peptide solution was added to 500 μl of C. albicans suspensions and the mixture was incubated at room temperature for 10 min. The inhibitory effects of the bacterial components were analyzed by incubating 450 μl of S. aureus suspension with 500 μl of peptide solution plus 50 μl of inhibitor samples at 37 °C for 10 min. Then, the peptide/bacteria suspensions were diluted and plated onto LB agar, LB agar containing 0.5% glucose, or YM agar. After cultivation of the plates, colony forming units (CFU) in the peptide/bacteria suspension were calculated based on the average of triplicate plates.
Peptidoglycan (120 μg) prepared from S. aureus was added to 1 mg/ml of lysozyme in phosphate buffered saline (150 μl)[33]. Peptidoglycan without lysozyme and lysozyme without peptidoglycan were also prepared as controls. Samples were incubated overnight at 37 °C, and then incubated at 100 °C for 15 min to inactivate lysozyme. For heat-inactivation of peptidoglycan, 600 μg of peptidoglycan suspended in water (300 μl) was incubated at 100 °C for 15 min. The samples were sonicated for 10 sec at setting 1 using a Branson sonifier model S-150D. These samples were used as inhibitor samples for antimicrobial activity assays.

Data set [2] concerns S. aureus. The data set is classed as cell-based, Staphylococcus aureus (NBRC100910). On the procedure: (§2) S. aureus (NBRC100910), E. coli W3110 (NBRC12713), E. hirae (NBRC3181), C. albicans (NBRC1385), and S. Typhimurium 14028s (ATCC14028)[2] were used in this study. S. aureus, E. coli, and S. Typhimurium were grown at 37 °C with aeration in Muller-Hinton II medium (BD Biosciences). E. hirae was grown at 37 °C in LB medium (Nacalai Tesque, Inc.) containing 0.5% glucose (w/v). C. albicans was grown at room temperature with aeration in YM medium (BD Biosciences). All experiments were conducted using bacterial cells and C. albicans in the logarithmic-phase of growth.
(§3) Bacterial suspensions in Muller-Hinton II medium were adjusted to an optical density of 550 nm (OD550) = 0.0011. C. albicans suspensions in YM medium were adjusted to OD650 = 0.033. Peptides were serially diluted in 10 mM phosphate buffer (pH 6.0) containing 130 mM sodium chloride, 0.2% bovine serum albumin, and 2.56% dimethyl sulfoxide. The peptide solution (100 μl) was mixed with 100 μl of bacteria or C. albicans suspensions. Bacterial cultures were incubated for one day at 37 °C. C. albicans cultures were incubated for two days at room temperature. Cell growth was monitored optically and the MIC was determined.

For data set [3], the system named is S. aureus. The data set is described as follows: Assay for membrane permeability (ethidium influx). As to conditions: 20 μg/ml peptide, fluorescence for 180 sec, 10 mM phosphate buffer pH 6.0, 130 mM NaCl, 0.2% BSA. The data set is classed as cell-based, Staphylococcus aureus. On the procedure:
To examine membrane permeability, ethidium influx rates were examined as previously described. S. aureus suspension cultures were adjusted to an OD600 of 0.4 in 10 mM phosphate buffer (pH 6.0) containing 130 mM sodium chloride and 0.2% bovine serum albumin. Then, peptide in dimethyl sulfoxide (8 μl) or dimethyl sulfoxide alone (8 μl) was added to 2 ml of S. aureus suspensions. At 30 sec after the addition of peptide, ethidium bromide was added to a final concentration of 5 μg/ml, and fluorescence of the ethidium-nucleic acid complex was monitored using a RF-5300PC spectrofluorometer (Shimadzu). Excitation and emission wavelengths were 545 nm with 5 nm slits and 600 nm with 10 nm slits, respectively.

For data set [4], the system named is S. aureus. The data set is described as follows: Assay for antimicrobial activity (10 min exposure, CFU). The data set is classed as cell-based, Staphylococcus aureus (NBRC100910). As to conditions: 10 min at 37 °C, standard assay with culture medium and 0.2% BSA, triplicate plates. On the procedure: as §2, §1
In data set [5] the test system is C. albicans. The data set is classed as cell-based, Candida albicans (NBRC1385). On the procedure: as §2, §3
Data set [6] concerns E. coli. The data set is classed as cell-based, Escherichia coli W3110 (NBRC12713). As to conditions: pH 6. On the procedure:
as §2, §3

In data set [7] the test system is S. aureus. The data set is described as follows: Peptide degradation in the S. aureus assay mixture (SDS-PAGE, Ruby stain). The data set is classed as in vitro ADME, Staphylococcus aureus. As to conditions: 15 μg/ml peptide with S. aureus, 10 min at 37 °C, antimicrobial assay mixture, Ruby protein gel stain.
The test system of data set [8] is Gram-positive bacteria. As to conditions: cited from earlier work. From the text:
Sapecin B is an antimicrobial peptide that was originally isolated from the culture medium of an embryonic cell line, NIH-Sape-4, derived from Sarcophaga peregrine (flesh fly). […] Two other related proteins, sapecin and sapecin C, were also isolated from culture medium of NIH-Sape-4[13][14][15]. Sapecin B has significant sequence similarity to a scorpion venom toxin, charybdotoxin[13][16]. Structural comparison of sapecin B and charybdotoxin identified the undecapeptide RSLCLLHCRLK-NH2, which corresponds to amino acid residues 7 to 1 ...

The mark [9] stands for this setting: S. aureus, Muller-Hinton II medium mixed 1:1 with peptide in 10 mM phosphate buffer pH 6.0, 130 mM NaCl, 0.2% BSA, 2.56% DMSO, one day at 37 °C, growth monitored optically.

The term MIC denotes the lowest concentration found to suppress growth. High values mean a less susceptible organism, low ones a more susceptible organism. As for `CC[C@@H](C)[C@@H](NC(=O)[C@H](N)Cc1ccccc1)C(=O)N[C@H](CCCCN)C(=O)N[C@H](CCCNC(=N)N)C(=O)N[C@@H](C(=O)N[C@H](C)C(=O)N[C@H](CCCNC(=N)N)C(=O)N[C@H](CC(C)C)C(=O)N[C@H](CC(C)C)C(=O)N[C@H](CCCNC(=N)N)C(=O)N[C@H](CCCCN)C(=O)N[C@@H](C(=O)N[C@H](Cc1ccccc1)C(N)=O)[C@H](C)CC)[C@H](C)CC` [D-form FIKRIARLLRKIF-NH2, reference compound] (H-[dF][dI][dK][dR][dI][dA][dR][dL][dL][dR][dK][dI][dF]-NH2; N-terminus assumed), the “inhibitory effect of S. aureus peptidoglycan on the antimicrobial activity” value in data set [1] is “significant inhibitory effects”. Further, in data set [2] (setting [9]), the MIC amounted to 4 µg/mL (≈ 2.39 µM). For `CC[C@@H](C)[C@@H](NC(=O)CNC(=O)[C@@H](CO)NC(=O)[C@@H](CC(C)C)NC(=O)[C@H](NC(=O)[C@@H](CCCNC(=N)N)NC(=O)CNC(=O)[C@H](NC(=O)[C@@H](CC(C)C)NC(=O)[C@H]1CCCN1C(=O)[C@@H](CC(C)C)NC(=O)[C@H](N)Cc1ccccc1)[C@H](C)CC)C(C)C)C(=O)N[C@H](CC(C)C)C(N)=O` [D-form FLPLIGRVLSGIL-NH2, reference compound] (H-[dF][dL][dP][dL][dI]G[dR][dV][dL][dS]G[dI][dL]-NH2; N-terminus assumed), the MIC in data set [2] (setting [9]) amounted to 8 µg/mL (≈ 5.73 µM).

On to `CC[C@@H](C)[C@@H](N)C(=O)N[C@H](CC(N)=O)C(=O)N[C@H](CC(C)C)C(=O)N[C@H](CCCCN)C(=O)N[C@H](C)C(=O)N[C@@H](C(=O)N[C@H](C)C(=O)N[C@H](C)C(=O)N[C@H](CC(C)C)C(=O)N[C@H](C)C(=O)N[C@H](CCCCN)C(=O)N[C@H](CCCCN)C(=O)N[C@H](CC(C)C)C(=O)N[C@H](CC(C)C)C(N)=O)[C@H](C)CC` [D-form INLKAIAALAKKLL-NH2, reference compound] (H-[dI][dN][dL][dK][dA][dI][dA][dA][dL][dA][dK][dK][dL][dL]-NH2), for which, in data set [3], the “ethidium bromide influx rate” value is “increased ethidium bromide influx rates to a similar extent”. For the same compound, the “inhibitory effect of S. aureus peptidoglycan on the antimicrobial activity” value in data set [1] was “weak inhibitory effects”. The compound also displayed an MIC in data set [2] (setting [9]) of 16 µg/mL (≈ 10.8 µM). For `CC(C)C[C@@H](NC(=O)[C@H](N)CCCCN)C(=O)N[C@H](CCCCN)C(=O)N[C@H](CC(C)C)C(=O)N[C@H](CC(C)C)C(=O)N[C@H](CC(C)C)C(=O)N[C@H](CCCCN)C(=O)N[C@H](CC(C)C)C(=O)N[C@H](CCCCN)C(N)=O` [D-form KLKLLLKLK-NH2] (H-[dK][dL][dK][dL][dL][dL][dK][dL][dK]-NH2; N-terminus assumed), the “fold by which the MIC of the D-form is lower than that of the L-form” value in data set [2] (S. aureus) is recorded as “more than 32 fold”. The same compound registered an MIC in data set [2] (setting [9]) of 4 µg/mL (≈ 3.65 µM). Also, the “antimicrobial activity (CFU), D-form compared with L-form” value in data set [4] is reported as “higher”.

“FIKRIARLLRKIF-NH2 [L-form FIKRIARLLRKIF-NH2, reference compound]” displayed an MIC in data set [2] (setting [9]) of 4 µg/mL. “FLPLIGRVLSGIL-NH2 [L-form FLPLIGRVLSGIL-NH2, reference compound]” came in with an MIC in data set [2] (setting [9]) of 8 µg/mL.

“INLKAIAALAKKLL-NH2 [L-form INLKAIAALAKKLL-NH2, reference compound]” registered an MIC in data set [2] (setting [9]) of 16 µg/mL. As for KLKLLLKLK-NH2 [L-form KLKLLLKLK-NH2], the minimal inhibitory concentration (MIC) in data set [2] (setting [9]) is over 128 µg/mL. For “KLKLLLLLKLK-NH2 [L-form KLKLLLLLKLK-NH2]”, the MIC in data set [5] stood at 64 µg/mL; in data set [2] (pH 6), 16 µg/mL; in data set [6], 16 µg/mL. Besides, the “specific degradation of the peptide” value in data set [7] is reported as “specific degradation of the L-form peptide was not observed”.

For the compound “RSLCLLHCRLK-NH2 [undecapeptide, amino acid residues 7 to 17 of sapecin B with C-terminal amidation]”, in data set [8], the antimicrobial activity result is on record as “significant antimicrobial activity”.
